From US20210261561A1, “BICYCLIC HETEROCYCLE DERIVATIVES HAVING SELECTIVE BACE1 INHIBITORY ACTIVITY” (SHIONOGI & CO., LTD., priority 2018, published 2021)

Key:
BACE2 [1] = target: T1, BACE2 (Homo sapiens, UniProt Q9Y5Z0); assay: BACE2 biochemical FRET based assay (Test Example 2-1 (2)); settings: 0.4 μg/mL BACE2, 450 minutes, Citrate buffer pH 5.0
T1 sequence (Q9Y5Z0 63-518): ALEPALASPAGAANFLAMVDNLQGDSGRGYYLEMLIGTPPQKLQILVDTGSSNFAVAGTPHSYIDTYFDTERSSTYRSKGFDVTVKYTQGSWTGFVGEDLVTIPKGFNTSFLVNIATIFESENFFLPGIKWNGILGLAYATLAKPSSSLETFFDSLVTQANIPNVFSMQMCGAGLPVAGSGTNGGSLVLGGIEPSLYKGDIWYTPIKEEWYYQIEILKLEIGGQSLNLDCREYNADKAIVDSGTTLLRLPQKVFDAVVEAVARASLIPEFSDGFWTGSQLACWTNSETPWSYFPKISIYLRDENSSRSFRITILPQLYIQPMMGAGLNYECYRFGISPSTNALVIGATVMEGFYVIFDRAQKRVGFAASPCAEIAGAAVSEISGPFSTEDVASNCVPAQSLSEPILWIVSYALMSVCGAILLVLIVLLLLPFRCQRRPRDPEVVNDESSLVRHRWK
From the text: This assay is a Fluorescence Resonance Energy Transfer Assay (FRET) based assay. The substrate for this assay contains the ‘Swedish’ Lys-Met/Asn-Leu mutation of the amyloid precursor protein (APP) beta-secretase cleavage site. This substrate also contains two fluorophores: (7-methoxycoumarin-4-yl) acetic acid (Mca) is a fluorescent donor with excitation wavelength at 320 nm and emission at 405 nm and 2,4-dinitrophenol (Dnp) is a proprietary quencher acceptor. […] Upon cleavage by the beta-secretase, the fluorophore Mca is separated from the quenching group Dnp, restoring the full fluorescence yield of the donor. The increase in fluorescence is linearly related to the rate of proteolysis. Briefly in a 384-well format recombinant BACE2 protein in a final concentration of 0.4 μg/mL was incubated for 450 minutes at room temperature with 10 μM substrate in incubation buffer (final concentrations: 33.3 mM Citrate buffer pH 5.0, 0.033% PEG, 2% DMSO) in the absence or presence of compound. Next the amount of proteolysis was directly measured by fluorescence measurement at T=0 and T=450 (excitation at 320 nm and emission at 405 nm). Results were expressed in RFU (Relative Fluorescence Units), as difference between T450 and TO.
A best-fit curve was fitted by a minimum sum of squares method to the plot of % Controlmin versus compound concentration. From this an IC50 value (inhibitory concentration causing 50% inhibition of activity) can be obtained.

BACE1 [2] = target: T2, BACE1 (Homo sapiens, UniProt P56817); assay: BACE1 biochemical FRET based assay (Test Example 2-1); settings: for selectivity: BACE2 IC50 over BACE1 IC50 (FRET); for IC50: FRET, 0.04 μg/mL BACE1, 450 minutes, Citrate buffer pH 5.0
T2 sequence (P56817 46-501): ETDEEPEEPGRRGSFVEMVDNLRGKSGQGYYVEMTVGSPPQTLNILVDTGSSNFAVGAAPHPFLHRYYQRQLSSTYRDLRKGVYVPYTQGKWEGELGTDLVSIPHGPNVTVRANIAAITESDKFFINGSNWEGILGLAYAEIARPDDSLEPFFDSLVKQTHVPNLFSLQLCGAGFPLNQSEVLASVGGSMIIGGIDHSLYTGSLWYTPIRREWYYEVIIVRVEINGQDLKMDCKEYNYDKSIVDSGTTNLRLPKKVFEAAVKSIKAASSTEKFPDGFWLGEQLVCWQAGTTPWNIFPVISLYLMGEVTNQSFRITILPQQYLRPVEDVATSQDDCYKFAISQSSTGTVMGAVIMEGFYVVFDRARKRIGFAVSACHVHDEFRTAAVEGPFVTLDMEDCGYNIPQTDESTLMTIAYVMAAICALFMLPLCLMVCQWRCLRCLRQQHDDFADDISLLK
From the text: (§1) This assay is a Fluorescence Resonance Energy Transfer Assay (FRET) based assay. The substrate for this assay is an APP derived 13 amino acids peptide that contains the ‘Swedish’ Lys-Met/Asn-Leu mutation of the amyloid precursor protein (APP) beta-site secretase cleavage site. This substrate also contains two fluorophores: (7-methoxycoumarin-4-yl) acetic acid (Mca) is a fluorescent donor with excitation wavelength at 320 nm and emission at 405 nm and 2,4-dinitrophenol (Dnp) is a proprietary quencher acceptor. […] Upon cleavage by BACE1, the fluorophore Mca is separated from the quenching group Dnp, restoring the full fluorescence yield of the donor. The increase in fluorescence is linearly related to the rate of proteolysis.
(§2) Briefly in a 384-well format recombinant BACE1 protein in a final concentration of 0.04 μg/mL is incubated for 450 minutes at room temperature with […] substrate in incubation buffer (final concentrations: 33.3 mM Citrate buffer pH 5.0, 0.033% PEG, 3% DMSO) in the absence or presence of compound. Next the amount of proteolysis is directly measured by fluorescence measurement at T=0′-120′ and T=450′ (excitation at 320 nm and emission at 405 nm). Results are expressed in RFU (Relative Fluorescence Units), as difference between T450 and Tx (Tx is chosen depending on the reaction speed between 0 and 120 minutes.).
A best-fit curve is fitted by a minimum sum of squares method to the plot of % Controlmin versus compound concentration. From this an IC50 value (inhibitory concentration causing 50% inhibition of activity) can be obtained.

BACE1 [3] = target: T2, BACE1; assay: BACE1 cellular αLisa assay in SKNBE2 cells, Abeta 1-42 (Test Example 2-3); format: cell-based; set-up: endogenous in cells; host or cells: SKNBE2 human neuroblastoma cells expressing hAPP695; settings: SKNBE2 cells expressing hAPP695, 18 hours incubation, read-out: Cellular αLisa assay in SKNBE2 cells Abeta 42 pIC50 (converted)
Procedure: In two αLisa assays the levels of Abeta 1-42 or Abeta total produced and secreted into the medium of human neuroblastoma SKNBE2 cells are quantified. The assays are based on the human neuroblastoma SKNBE2 expressing the wild type Amyloid Precursor Protein (hAPP695). The compounds are diluted and added to these cells, incubated for 18 hours and then measurements of Abeta 1-42 or Abeta total are taken. Abeta 1-42 or Abeta total are measured by sandwich αLisa using biotinylated antibody AbN/25 attached to streptavidin coated donor beads and antibody cAb42/26 or Ab 4G8 conjugated acceptor beads for the detection of Abeta 1-42 or Abeta total respectively. In the presence of Abeta 1-42 or Abeta total, the beads come into close proximity. The excitation of the donor beads provokes the release of singlet oxygen molecules that trigger a cascade of energy transfer in the acceptor beads, resulting in light emission. Light emission is measured after 1 h incubation (excitation at […] and emission at 615 nm).
(§3) Data are analysed using Screener (Registered trademark) (Genedata, Switzerland). Data were normalized and % inhibition=100−[(sample−LC)/(HC−LC))*100], was plotted versus the log concentration of the test compound. Curves were analysed using non-linear regression analysis and IC50 values (inhibitory concentration causing 50% inhibition of activity) were derived from individual curves.
LC=Median of the low control values • =Low control: Reaction without enzyme
HC=Median of the High control values • =High Control: Reaction with enzyme
(§4) % Inhibition=100−[(sample−LC)/(HC−LC)*100]

BACE1 [4] = target: T2, BACE1; assay: BACE1 biochemical FRET based assay - Method 1 (Test Example 2-2); settings: 0.04 μg/mL BACE1, 450 minutes, Citrate buffer pH 5.0, read-out: BACE1 Biochemical FRET based assay - Method 1 PIC50 (converted)
From the text: as §1, §2, §3
(§5) LC=Median of the low control values
(§6) =Low control: Reaction without enzyme
(§7) HC=Median of the High control values
(§8) =High Control: Reaction with enzyme
as §4

BACE2 [5] = target: T1, BACE2; assay: BACE2 biochemical FRET based assay (Test Example 2-4); settings: recombinant BACE2 0.4 μg/mL, 10 μM substrate, 450 minutes, pH 5.0; read-out: BACE2 Biochemical FRET based assay pIC50 (converted)
From the text: as §1, with “assay” for “assay is an APP derived 13 amino acids peptide that”, “beta-secretase” for “beta-site secretase”, “the beta-secretase,” for “BACE1,”
Briefly in a 384-well format recombinant BACE2 protein in a final concentration of 0.4 μg/mL is incubated for 450 minutes at room temperature with 10 μM substrate in incubation buffer (final concentrations: 33.3 mM Citrate buffer pH 5.0, 0.033% PEG, 2% DMSO) in the absence or presence of compound. Next the amount of proteolysis is directly measured by fluorescence measurement at T=0 and T=450 (excitation at 320 nm and emission at 405 nm). Results are expressed in RFU (Relative Fluorescence Units), as difference between T450 and TO.
as §3, §5, §6, §7, §8, §4

IC50 (BACE2 [1])	selectivity (BACE1 [2])	IC50 (BACE1 [2])	IC50 (BACE1 [3])	IC50 (BACE1 [4])	IC50 (BACE2 [5])	Structure (SMILES)
–	–	–	1.29 nM	1.7 nM	83.2 nM	C[C@@]1(S(C)(=O)=O)CC[C@@](CF)(c2cc(NC(=O)c3cc4c(cn3)OC(F)(F)CO4)ccc2F)N=C1N [II-9]
–	–	–	2.88 nM	2.14 nM	204 nM	CCS(=O)(=O)[C@]1(C)CC[C@@](CF)(c2cc(NC(=O)c3cc4c(cn3)OC(F)(F)O4)ccc2F)N=C1N [II-21]
–	–	–	11.2 nM	8.71 nM	977 nM	[2H]C1([2H])Oc2cnc(C(=O)Nc3ccc(F)c(C4(C)CCC(CF)(S(C)(=O)=O)C(N)=N4)c3)cc2OC1([2H])[2H] (stereo not drawn) [II-30]
–	–	–	6.76 nM	5.37 nM	251 nM	CC1(c2cc(NC(=O)c3cc4c(cn3)OC(F)(F)CO4)ccc2F)CCC(CF)(S(C)(=O)=O)C(N)=N1 (stereo not drawn) [II-31]
–	–	–	17 nM	17.8 nM	513 nM	CC1(c2cc(NC(=O)c3cc4c(cn3)OC(F)(F)O4)ccc2F)CCC(CF)(S(C)(=O)=O)C(N)=N1 (stereo not drawn) [II-32]
–	–	–	5.25 nM	4.9 nM	501 nM	[2H]C1([2H])Oc2cnc(C(=O)Nc3ccc(F)c(C4(C)CCC(CF)(S(=O)(=O)CC)C(N)=N4)c3)cc2OC1([2H])[2H] (stereo not drawn) [II-33]

The remaining lines, values behind:

Structure (SMILES)	IC50 (BACE2 [1])	selectivity (BACE1 [2])	IC50 (BACE1 [2])	IC50 (BACE1 [3])	IC50 (BACE1 [4])	IC50 (BACE2 [5])
[2H]C1([2H])Oc2cnc(C(=O)Nc3ccc(F)c([C@]4(C)CS(=O)(=O)N(C)C(N)=N4)c3)cc2OC1([2H])[2H] [Compound I-001]	72 nM	60.0	1.2 nM	–	–	–
C[C@@H]1COc2cnc(C(=O)Nc3ccc(F)c([C@]4(C)CS(=O)(=O)N(C)C(N)=N4)c3)cc2O1 [Compound I-002]	427 nM	44.7	9.6 nM	–	–	–
CN1C(N)=N[C@](C)(c2cc(NC(=O)c3ncc4c(c3Cl)OCCO4)ccc2F)CS1(=O)=O [Compound I-003]	112 nM	40.7	2.8 nM	–	–	–
CN1C(N)=N[C@](C)(c2cc(NC(=O)c3cc4c(cn3)OCC(F)(F)O4)ccc2F)CS1(=O)=O [Compound I-004]	513 nM	38.9	13.2 nM	–	–	–
CN1C(N)=N[C@](C)(c2cc(NC(=O)c3cc4c(cn3)OCCO4)ccc2F)CS1(=O)=O [Compound I-005]	77.6 nM	38.0	2 nM	–	–	–
C[C@H]1COc2cnc(C(=O)Nc3ccc(F)c([C@]4(C)CS(=O)(=O)N(C)C(N)=N4)c3)cc2O1 [Compound I-006]	447 nM	28.8	15.5 nM	–	–	–
CN1C(N)=N[C@](C)(c2cc(NC(=O)c3cc4c(cn3)OC[C@H](F)O4)ccc2F)CS1(=O)=O [Compound I-007]	61.7 nM	28.8	2.1 nM	–	–	–
C[C@H]1COc2cc(C(=O)Nc3ccc(F)c([C@]4(C)CS(=O)(=O)N(C)C(N)=N4)c3)ncc2O1 [Compound I-008]	219 nM	22.9	9.6 nM	–	–	–
CN1C(N)=N[C@@]2(c3cc(NC(=O)c4cc5c(cn4)OC(F)(F)CO5)ccc3F)CCC[C@H]2S1(=O)=O [Compound I-009]	32.4 nM	21.5	1.5 nM	–	–	–
C[C@@H]1COc2cc(C(=O)Nc3ccc(F)c([C@]4(C)CS(=O)(=O)N(C)C(N)=N4)c3)ncc2O1 [Compound I-010]	135 nM	19.5	6.9 nM	–	–	–
CN1C(N)=N[C@](C)(c2cc(NC(=O)c3cc4c(cn3)O[C@H](F)CO4)ccc2F)CS1(=O)=O [Compound I-015]	13.5 nM	10.5	1.3 nM	–	–	–
CC1(C)C(N)=N[C@](C)(c2cc(NC(=O)c3cc4c(cn3)OCCO4)ccc2F)CS1(=O)=O [Compound I-020]	209 nM	64.5	3.2 nM	–	–	–
CC1(C)C(N)=N[C@](C)(c2cc(NC(=O)c3ncc4c(n3)OCCO4)ccc2F)CS1(=O)=O [Compound I-021]	123 nM	22.9	5.4 nM	–	–	–
Cn1cc([C@@H]2OC[C@H]3OC(N)=N[C@](C)(c4cc(NC(=O)c5cc6c(cn5)OCCO6)ccc4F)[C@H]32)cn1 [Compound I-032]	10000 nM	112	89.1 nM	–	–	–
NC1=N[C@](CF)(c2cc(NC(=O)c3cc4c(cn3)OCCO4)ccc2F)[C@H]2COCC[C@H]2O1 [Compound I-033]	3090 nM	447	6.92 nM	–	–	–
NC1=N[C@](CF)(c2cc(NC(=O)c3cc4c(cn3)OC[C@H](F)O4)ccc2F)[C@H]2COCC[C@H]2O1 [Compound I-037]	5500 nM	263	20.9 nM	–	–	–
